Where no end group is shown, it is not given here.
Test system: leaf rust (Puccinia triticina, CCDS-96-14-1 isolate) urediniospores
Assay type: cell-based

## KEICCKELTKPVKCSSDPLCQKLCMEKEKYEDGHCFTILSKCLCMKRCNAKTLATELLA (disulfide (positions not given here)) [CaThi]
  germination rate of urediniospores: 22.73 % ± 7.39

Reference: article PMC10903759 (Journal of Genetic Engineering & Biotechnology, 2024)
